Data as given in US20240024488A1, “COMPOUNDS AND USES THEREOF” (Foghorn Therapeutics Inc., priority 2020, published 2024).

Legend:
HiBit-BRM fusion protein = target: T1, HiBit-BRM fusion protein (Homo sapiens, UniProt P51531); experiment: HiBiT-BRM cell-based degradation assay (Nano-Glo HiBiT Lytic Detection, 24 h); details: HeLa cell line expressing HiBiT-BRM; for DC50: read-out: BRM HiBit Degradation IC50
T1 construct: expressed in transfected cells
Procedure, shortened: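 HeLa cells stably expressing HiBiT-BRM were dosed with compounds (10-point 3-fold dilutions, 30 μM final top dose, duplicate) for 24 h. HiBiT signal was read by lytic LgBiT complementation luminescence. Percent degradation was normalised to DMSO (high control) and 2 μM of a reference BRM/BRG1 degrader (low control).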

[1] = target: T2, HiBit-BRG1 fusion protein (Homo sapiens, UniProt P51532); experiment: HiBiT-BRG1 cell-based degradation assay (Nano-Glo HiBiT Lytic Detection, 24 h); details: HeLa cell line expressing HiBit-BRG1 and LgBit; for Dmax: read-out: BRG1 HiBit Degradation Maximum (%); for DC50: read-out: BRMG1 HiBit Degradation IC50
T2 construct: expressed in transfected cells
Procedure, shortened: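 HeLa cells stably expressing HiBiT-BRG1 plus LgBit, 5000/well, treated 24 h, then lysed with Nano-Glo HiBiT lytic reagent and luminescence read. % degradation normalised between DMSO (high control) and 2 μM reference BRM/BRG1 degrader (low control).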

T1 sequence (P51531 whole entry, the tested form may be a part): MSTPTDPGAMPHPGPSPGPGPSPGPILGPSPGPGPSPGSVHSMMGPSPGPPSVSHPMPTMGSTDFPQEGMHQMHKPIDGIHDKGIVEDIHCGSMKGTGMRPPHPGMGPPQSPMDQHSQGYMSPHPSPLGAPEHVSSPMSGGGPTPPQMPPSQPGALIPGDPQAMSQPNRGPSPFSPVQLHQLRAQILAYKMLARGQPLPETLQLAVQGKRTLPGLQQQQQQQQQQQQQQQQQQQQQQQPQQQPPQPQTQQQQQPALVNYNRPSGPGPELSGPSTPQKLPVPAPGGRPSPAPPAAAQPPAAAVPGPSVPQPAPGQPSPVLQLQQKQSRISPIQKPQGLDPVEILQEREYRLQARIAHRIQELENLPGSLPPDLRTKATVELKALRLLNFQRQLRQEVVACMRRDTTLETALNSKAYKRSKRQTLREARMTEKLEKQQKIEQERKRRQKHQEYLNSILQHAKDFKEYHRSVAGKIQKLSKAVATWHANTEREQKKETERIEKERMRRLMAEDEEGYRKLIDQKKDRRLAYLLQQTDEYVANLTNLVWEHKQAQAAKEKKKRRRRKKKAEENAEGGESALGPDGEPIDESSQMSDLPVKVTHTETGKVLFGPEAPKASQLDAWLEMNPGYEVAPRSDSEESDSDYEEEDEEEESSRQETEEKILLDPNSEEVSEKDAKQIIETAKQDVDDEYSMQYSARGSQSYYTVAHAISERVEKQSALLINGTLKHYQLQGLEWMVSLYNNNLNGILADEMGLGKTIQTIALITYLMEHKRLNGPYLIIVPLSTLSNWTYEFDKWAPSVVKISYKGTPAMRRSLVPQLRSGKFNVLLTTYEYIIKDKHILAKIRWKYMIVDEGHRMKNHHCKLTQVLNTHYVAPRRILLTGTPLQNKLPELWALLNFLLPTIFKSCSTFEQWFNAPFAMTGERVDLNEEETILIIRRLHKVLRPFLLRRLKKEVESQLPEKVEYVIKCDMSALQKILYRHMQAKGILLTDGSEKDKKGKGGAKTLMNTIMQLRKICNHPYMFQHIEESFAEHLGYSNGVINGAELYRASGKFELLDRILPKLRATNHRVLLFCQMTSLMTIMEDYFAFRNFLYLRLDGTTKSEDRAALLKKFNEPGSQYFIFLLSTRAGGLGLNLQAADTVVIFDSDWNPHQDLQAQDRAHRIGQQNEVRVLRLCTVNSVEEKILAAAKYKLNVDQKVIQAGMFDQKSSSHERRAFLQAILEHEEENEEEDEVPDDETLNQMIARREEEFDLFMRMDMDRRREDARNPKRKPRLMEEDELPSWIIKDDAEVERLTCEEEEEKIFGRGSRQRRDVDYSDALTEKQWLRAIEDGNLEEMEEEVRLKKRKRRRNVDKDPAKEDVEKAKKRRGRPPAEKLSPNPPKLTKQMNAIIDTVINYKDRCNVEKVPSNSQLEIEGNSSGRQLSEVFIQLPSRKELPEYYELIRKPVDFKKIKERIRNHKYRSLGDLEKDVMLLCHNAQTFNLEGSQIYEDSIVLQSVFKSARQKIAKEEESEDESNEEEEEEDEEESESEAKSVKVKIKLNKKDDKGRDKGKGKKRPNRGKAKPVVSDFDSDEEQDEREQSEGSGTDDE
T2 sequence (P51532 whole entry, the tested form may be a part): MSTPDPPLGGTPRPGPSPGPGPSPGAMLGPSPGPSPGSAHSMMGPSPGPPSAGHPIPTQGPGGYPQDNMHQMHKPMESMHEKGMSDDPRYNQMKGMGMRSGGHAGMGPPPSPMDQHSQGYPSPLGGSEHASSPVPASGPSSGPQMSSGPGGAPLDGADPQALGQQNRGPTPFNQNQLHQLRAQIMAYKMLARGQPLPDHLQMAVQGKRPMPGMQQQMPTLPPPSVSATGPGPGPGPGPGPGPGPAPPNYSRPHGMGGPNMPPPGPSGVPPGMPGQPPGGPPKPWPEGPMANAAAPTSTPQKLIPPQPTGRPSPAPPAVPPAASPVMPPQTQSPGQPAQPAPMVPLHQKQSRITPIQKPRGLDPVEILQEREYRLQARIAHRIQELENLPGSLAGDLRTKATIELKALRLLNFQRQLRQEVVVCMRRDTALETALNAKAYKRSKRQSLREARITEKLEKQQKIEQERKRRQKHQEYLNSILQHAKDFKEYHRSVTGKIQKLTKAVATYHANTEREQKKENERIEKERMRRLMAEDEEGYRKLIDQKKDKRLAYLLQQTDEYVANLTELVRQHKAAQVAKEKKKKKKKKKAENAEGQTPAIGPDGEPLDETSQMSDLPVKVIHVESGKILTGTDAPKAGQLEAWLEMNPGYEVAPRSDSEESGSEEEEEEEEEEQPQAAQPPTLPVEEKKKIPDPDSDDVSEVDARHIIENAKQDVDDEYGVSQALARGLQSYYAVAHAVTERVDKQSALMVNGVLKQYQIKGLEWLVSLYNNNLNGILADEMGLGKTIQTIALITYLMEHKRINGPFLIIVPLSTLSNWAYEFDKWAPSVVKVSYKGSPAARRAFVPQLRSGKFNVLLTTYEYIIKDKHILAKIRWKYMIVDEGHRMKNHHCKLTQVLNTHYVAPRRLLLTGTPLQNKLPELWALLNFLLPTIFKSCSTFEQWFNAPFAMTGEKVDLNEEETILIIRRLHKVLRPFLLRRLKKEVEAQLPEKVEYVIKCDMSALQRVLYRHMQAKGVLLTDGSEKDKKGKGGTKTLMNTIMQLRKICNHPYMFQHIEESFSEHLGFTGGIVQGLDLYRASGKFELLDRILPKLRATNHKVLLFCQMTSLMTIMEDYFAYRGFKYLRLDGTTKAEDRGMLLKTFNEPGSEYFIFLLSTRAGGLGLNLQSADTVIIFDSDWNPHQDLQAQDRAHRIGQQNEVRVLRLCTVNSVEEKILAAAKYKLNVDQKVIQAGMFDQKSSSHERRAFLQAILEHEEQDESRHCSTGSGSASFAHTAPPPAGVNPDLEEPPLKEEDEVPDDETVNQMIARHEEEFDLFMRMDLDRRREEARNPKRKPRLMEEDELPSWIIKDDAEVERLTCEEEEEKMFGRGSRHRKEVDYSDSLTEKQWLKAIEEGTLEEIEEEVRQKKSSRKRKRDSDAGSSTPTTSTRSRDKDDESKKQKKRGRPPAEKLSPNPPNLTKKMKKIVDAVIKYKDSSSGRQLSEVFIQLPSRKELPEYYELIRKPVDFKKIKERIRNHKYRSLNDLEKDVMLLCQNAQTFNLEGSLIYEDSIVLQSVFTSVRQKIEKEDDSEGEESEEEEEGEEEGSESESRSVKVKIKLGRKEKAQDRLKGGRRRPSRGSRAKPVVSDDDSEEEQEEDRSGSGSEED

| SMILES | BRM HiBit Degradation Maximum (%) (HiBit-BRM fusion protein) | DC50 (HiBit-BRM fusion protein) | Dmax [1] | DC50 [1] |
| --- | --- | --- | --- | --- |
| Cc1ncsc1-c1ccc([C@H](C)NC(=O)[C@@H]2C[C@@H](O)CN2C(=O)[C@@H](c2cc(OCCNC(=O)C(=O)N3CC(c4c[nH]c5nnc(-c6ccccc6O)cc45)C3)no2)C(C)C)cc1 (racemic) [Compound 250, (2S,4R)-4-hydroxy-1-((R)-2-(3-(2-(2-(3-(3-(2-hydroxyphenyl)-7H-pyrrolo[2,3-c]pyridazin-5-yl)azetidin-1-yl)-2-oxoacetamido)ethoxy)isoxazol-5-yl)-3-methylbutanoyl)-N-((S)-1-(4-(4-methylthiazol-5-yl)phenyl)ethyl)pyrrolidine-2-carboxamide] | A (“A” indicates maximum degradation ≥ 75%) | > 100 nM | < 50% |  |
| Cc1ncsc1-c1ccc([C@H](C)NC(=O)[C@@H]2C[C@@H](O)CN2C(=O)[C@@H](c2cc(N3CCN(CCC(=O)N4CC(c5c[nH]c6nnc(-c7ccccc7O)cc56)C4)CC3)no2)C(C)C)cc1 (racemic) [Compound 251, (2S,4R)-4-hydroxy-1-((R)-2-(3-(4-(3-(3-(3-(2-hydroxyphenyl)-7H-pyrrolo[2,3-c]pyridazin-5-yl)azetidin-1-yl)-3-oxopropyl)piperazin-1-yl)isoxazol-5-yl)-3-methylbutanoyl)-N-((S)-1-(4-(4-methylthiazol-5-yl)phenyl)ethyl)pyrrolidine-2-carboxamide] | A (“A” indicates maximum degradation ≥ 75%) | > 100 nM | > 75% | > 100 nM |
| Cc1ncsc1-c1ccc([C@H](C)NC(=O)[C@@H]2C[C@@H](O)CN2C(=O)[C@H](c2cc(N3CCN(C(=O)c4cc5cc(-c6ccccc6O)nnc5[nH]4)CC3)no2)C(C)C)cc1 (racemic) [Compound 252, (2S,4R)-4-hydroxy-1-((S)-2-(3-(4-(3-(2-hydroxyphenyl)-7H-pyrrolo[2,3-c]pyridazine-6-carbonyl)piperazin-1-yl)isoxazol-5-yl)-3-methylbutanoyl)-N-((S)-1-(4-(4-methylthiazol-5-yl)phenyl)ethyl)pyrrolidine-2-carboxamide] | C (“C” indicates maximum degradation < 50%) |  | < 50% |  |
| Cc1ncsc1-c1ccc([C@H](C)NC(=O)[C@@H]2C[C@@H](O)CN2C(=O)[C@@H](c2cc(N3CCN(C(=O)c4cc5cc(-c6ccccc6O)nnc5[nH]4)CC3)no2)C(C)C)cc1 (racemic) [Compound 253, (2S,4R)-4-hydroxy-1-((R)-2-(3-(4-(3-(2-hydroxyphenyl)-7H-pyrrolo[2,3-c]pyridazine-6-carbonyl)piperazin-1-yl)isoxazol-5-yl)-3-methylbutanoyl)-N-((S)-1-(4-(4-methylthiazol-5-yl)phenyl)ethyl)pyrrolidine-2-carboxamide] | A (“A” indicates maximum degradation ≥ 75%) | > 100 nM | > 75% | > 100 nM |
| Cc1ncsc1-c1ccc([C@H](C)NC(=O)[C@@H]2C[C@@H](O)CN2C(=O)[C@@H](c2cc(OCCN3CC(c4c(C)[nH]c5nnc(-c6ccccc6O)cc45)C3)no2)C(C)C)cc1 (racemic) [Compound 254, (2S,4R)-4-hydroxy-1-((R)-2-(3-(2-(3-(3-(2-hydroxyphenyl)-6-methyl-7H-pyrrolo[2,3-c]pyridazin-5-yl)azetidin-1-yl)ethoxy)isoxazol-5-yl)-3-methylbutanoyl)-N-((S)-1-(4-(4-methylthiazol-5-yl)phenyl)ethyl)pyrrolidine-2-carboxamide] | A (“A” indicates maximum degradation ≥ 75%) | > 10 nM | < 50% |  |
| Cc1ncsc1-c1ccc([C@H](C)NC(=O)[C@@H]2C[C@@H](O)CN2C(=O)[C@@H](c2cc(N(C)CCN3CC(c4cc5cc(-c6ccccc6O)nnc5[nH]4)C3)no2)C(C)C)cc1 (racemic) [Compound 256] | A (“A” indicates maximum degradation ≥ 75%) | > 100 nM | < 50% |  |
| Cc1ncsc1-c1ccc([C@H](C)NC(=O)[C@@H]2C[C@@H](O)CN2C(=O)[C@H](c2cc(N(C)CCN3CC(c4cc5cc(-c6ccccc6O)nnc5[nH]4)C3)no2)C(C)C)cc1 (racemic) [Compound 257, (2S,4R)-4-hydroxy-1-((S)-2-(3-((2-(3-(3-(2-hydroxyphenyl)-7H-pyrrolo[2,3-c]pyridazin-6-yl)azetidin-1-yl)ethyl)(methyl)amino)isoxazol-5-yl)-3-methylbutanoyl)-N-((S)-1-(4-(4-methylthiazol-5-yl)phenyl)ethyl)pyrrolidine-2-carboxamide] | C (“C” indicates maximum degradation < 50%) |  | < 50% |  |
| Cc1ncsc1-c1ccc([C@H](C)NC(=O)[C@@H]2C[C@@H](O)CN2C(=O)[C@@H](c2cc(OCCN3CC[C@H](c4[nH]c5nnc(-c6ccccc6O)cc5c4C)C3)no2)C(C)C)cc1 (racemic) [Compound 258, (2S,4R)-4-hydroxy-1-((R)-2-(3-(2-((S)-3-(3-(2-hydroxyphenyl)-5-methyl-7H-pyrrolo[2,3-c]pyridazin-6-yl)pyrrolidin-1-yl)ethoxy)isoxazol-5-yl)-3-methylbutanoyl)-N-((S)-1-(4-(4-methylthiazol-5-yl)phenyl)ethyl)pyrrolidine-2-carboxamide] | A (“A” indicates maximum degradation ≥ 75%) | < 10 nM | > 75% | > 10 nM |
| Cc1ncsc1-c1ccc([C@H](C)NC(=O)[C@@H]2C[C@@H](O)CN2C(=O)[C@@H](c2cc(OCCN3CC[C@@H](c4[nH]c5nnc(-c6ccccc6O)cc5c4C)C3)no2)C(C)C)cc1 (racemic) [Compound 259, (2S,4R)-4-hydroxy-1-((R)-2-(3-(2-((R)-3-(3-(2-hydroxyphenyl)-5-methyl-7H-pyrrolo[2,3-c]pyridazin-6-yl)pyrrolidin-1-yl)ethoxy)isoxazol-5-yl)-3-methylbutanoyl)-N-((S)-1-(4-(4-methylthiazol-5-yl)phenyl)ethyl)pyrrolidine-2-carboxamide] | A (“A” indicates maximum degradation ≥ 75%) | < 10 nM | > 75% | > 10 nM |
| Cc1ncsc1-c1ccc([C@H](C)NC(=O)[C@@H]2C[C@@H](O)CN2C(=O)[C@@H](c2cc(OCCN3CCC[C@H]3c3cc4cc(-c5ccccc5O)nnc4[nH]3)no2)C(C)C)cc1 (racemic) [Compound 260, (2S,4R)-4-hydroxy-1-((R)-2-(3-(2-((S)-2-(3-(2-hydroxyphenyl)-7H-pyrrolo[2,3-c]pyridazin-6-yl)pyrrolidin-1-yl)ethoxy)isoxazol-5-yl)-3-methylbutanoyl)-N-((S)-1-(4-(4-methylthiazol-5-yl)phenyl)ethyl)pyrrolidine-2-carboxamide] | B (“B” indicates maximum degradation ≥ 50%) | > 10 nM | < 50% |  |
| Cc1ncsc1-c1ccc([C@H](C)NC(=O)[C@@H]2C[C@@H](O)CN2C(=O)[C@@H](c2cc(OCCN3CCC[C@@H]3c3cc4cc(-c5ccccc5O)nnc4[nH]3)no2)C(C)C)cc1 (racemic) [Compound 261, (2S,4R)-4-hydroxy-1-((R)-2-(3-(2-((R)-2-(3-(2-hydroxyphenyl)-7H-pyrrolo[2,3-c]pyridazin-6-yl)pyrrolidin-1-yl)ethoxy)isoxazol-5-yl)-3-methylbutanoyl)-N-((S)-1-(4-(4-methylthiazol-5-yl)phenyl)ethyl)pyrrolidine-2-carboxamide] | C (“C” indicates maximum degradation < 50%) |  | < 50% |  |
| Cc1ncsc1-c1ccc([C@H](C)NC(=O)[C@@H]2C[C@@H](O)CN2C(=O)[C@@H](c2cc(OCCN3CC[C@@H](c4c[nH]c5nnc(-c6ccccc6O)cc45)C3)no2)C(C)C)cc1 (racemic) [Compound 262, (2S,4R)-4-hydroxy-1-((R)-2-(3-(2-((S)-3-(3-(2-hydroxyphenyl)-7H-pyrrolo[2,3-c]pyridazin-5-yl)pyrrolidin-1-yl)ethoxy)isoxazol-5-yl)-3-methylbutanoyl)-N-((S)-1-(4-(4-methylthiazol-5-yl)phenyl)ethyl)pyrrolidine-2-carboxamide] | B (“B” indicates maximum degradation ≥ 50%) | > 10 nM | < 50% |  |
| Cc1ncsc1-c1ccc([C@H](C)NC(=O)[C@@H]2C[C@@H](O)CN2C(=O)[C@@H](c2cc(N3CCN(CC(=O)N4CC(c5cc6cc(-c7ccccc7O)nnc6[nH]5)C4)CC3)no2)C(C)C)cc1 (racemic) [Compound 263, (2S,4R)-4-hydroxy-1-((R)-2-(3-(4-(2-(3-(3-(2-hydroxyphenyl)-7H-pyrrolo[2,3-c]pyridazin-6-yl)azetidin-1-yl)-2-oxoethyl)piperazin-1-yl)isoxazol-5-yl)-3-methylbutanoyl)-N-((S)-1-(4-(4-methylthiazol-5-yl)phenyl)ethyl)pyrrolidine-2-carboxamide] | A (“A” indicates maximum degradation ≥ 75%) | > 100 nM | > 75% | > 1000 nM |
| Cc1ncsc1-c1ccc([C@H](C)NC(=O)[C@@H]2C[C@@H](O)CN2C(=O)C(c2cc(N3CCC(C(=O)N4CC(c5cc6cc(-c7ccccc7O)nnc6[nH]5)C4)CC3)no2)C(C)C)cc1 (mixture of isomers) [Compound 264, (2S,4R)-4-hydroxy-1-((R)-2-(3-(4-(3-(3-(2-hydroxyphenyl)-7H-pyrrolo[2,3-c]pyridazin-6-yl)azetidine-1-carbonyl)piperidin-1-yl)isoxazol-5-yl)-3-methylbutanoyl)-N-((S)-1-(4-(4-methylthiazol-5-yl)phenyl)ethyl)pyrrolidine-2-carboxamide] | C (“C” indicates maximum degradation < 50%) |  | < 50% |  |
